{"source": "the SangsterLogP compilation", "key": {"[1]": {"test": "method code SF-AS, from DOI: 10.1007/bf01648987"}, "[2]": {"test": "method code SF-HPLC, from DOI: 10.1002/ps.2780310207"}, "[3]": {"test": "method code SF-AS, from DOI: 10.1080/10826076.2011.619030"}, "[4]": {"test": "method code SF-RC, from DOI: 10.1021/jm00238a003, PMID: 1120999", "settings": "pH 7.0"}, "[5]": {"test": "method code SF-AS, from PMID: 578762"}, "[6]": {"test": "not given", "remark": "listed apart in the source"}, "[7]": {"test": "not given", "remark": "listed apart in the source"}, "[8]": {"test": "not given", "remark": "listed apart in the source"}, "[9]": {"test": "method code SF-GLC, from DOI: 10.1016/0048-3575(76)90072-9"}, "[10]": {"test": "not given", "remark": "listed apart in the source"}, "[11]": {"test": "not given", "remark": "listed apart in the source"}, "[12]": {"test": "not given", "remark": "listed apart in the source"}, "[13]": {"test": "method code SF, from PMID: 718082"}}, "data": [{"smiles": "CC(=O)OC(OC(C)=O)c1ccccc1", "values": [{"measurement": "logP", "setting": "[1]", "value": 1.62}]}, {"smiles": "CC(C)(Cc1ccccn1)c1ccc(F)cc1", "values": [{"measurement": "logP", "setting": "[2]", "value": 2.97}]}, {"smiles": "CC1(C)OC2C(CO)OC(n3ccc(=O)[nH]c3=O)C2O1", "note": "(configuration not stated)", "values": [{"measurement": "logP", "setting": "[3]", "value": -0.47}]}, {"smiles": "CN1CCc2cccc(Cl)c2CC1", "values": [{"measurement": "logP", "value": 2.92}]}, {"smiles": "CC(C)(C)C(=O)OC[C@H]1O[C@@H](n2ccc(N)nc2=O)[C@@H](O)[C@@H]1O", "values": [{"measurement": "logD", "setting": "[4]", "value": 0.1}]}, {"smiles": "CCCC(Cc1ccccn1)c1ccc(F)cc1", "note": "(configuration not stated)", "values": [{"measurement": "logP", "setting": "[2]", "value": 2.61}]}, {"smiles": "CCCN1C(=O)C(N2CCCCC2)S/C1=C\\C(=O)OCC", "note": "(configuration not stated)", "values": [{"measurement": "logD", "setting": "[5]; pH 7.4", "value": 2.93}]}, {"smiles": "O=C(Oc1ccc([N+](=O)[O-])cc1)C1OC(O)C(O)C(O)C1O", "note": "(configuration not stated)", "values": [{"measurement": "logP", "setting": "[6]", "value": -0.45}]}, {"smiles": "CC1(C)OC2C(CO)OC(n3ccc(=O)n(C(=O)c4ccccc4)c3=O)C2O1", "note": "(configuration not stated)", "values": [{"measurement": "logP", "setting": "[3]", "value": 0.95}]}, {"smiles": "CCCN1CC(C)n2c(nc3ccccc3c2=O)C1C", "note": "(configuration not stated)", "values": [{"measurement": "logP", "setting": "[7]", "value": 1.45}]}, {"smiles": "O=C1CN=C(c2ccccc2Br)c2cc(Br)ccc2N1", "values": [{"measurement": "logP", "setting": "[8]", "value": 3.3}]}, {"smiles": "CCOC(=O)CN(C(=O)CCl)c1c(CC)cccc1CC", "values": [{"measurement": "logP", "setting": "[9]", "value": 3.17}]}, {"smiles": "Cc1nc(Cl)c(C#N)cc1-c1ccccc1", "values": [{"measurement": "logP", "setting": "[10]", "value": 3.24}]}, {"smiles": "c1ccc(C23CC4CC(CC(C4)C2)C3)cc1", "values": [{"measurement": "logP", "setting": "[11]", "value": 5.55}]}, {"smiles": "NC(=O)NCCN1CCc2cccc(Cl)c2CC1", "values": [{"measurement": "logP", "value": 2.07}]}, {"smiles": "CC(C)C(=O)OCC1OC(n2ccc(N)nc2=O)C(O)C1O", "note": "(configuration not stated)", "values": [{"measurement": "logD", "setting": "[4]", "value": 0.3}]}, {"smiles": "c1ccc2c(c1)nnn2C12CC3CC1CCC2C3", "note": "(configuration not stated)", "values": [{"measurement": "logP", "setting": "[11]", "value": 3.52}]}, {"smiles": "O=C(Oc1ccc2ccccc2c1)C1OC(O)C(O)C(O)C1O", "note": "(configuration not stated)", "values": [{"measurement": "logP", "setting": "[6]", "value": 1.39}]}, {"smiles": "CCOC(=O)CN(C(=O)CCl)c1ccccc1Cl", "values": [{"measurement": "logP", "setting": "[9]", "value": 2.3}]}, {"smiles": "CCOC(=O)/C=C1/SC(N2CCCCC2)C(=O)N1CC", "note": "(configuration not stated)", "values": [{"measurement": "logD", "setting": "[5]; pH 7.4", "value": 2.65}]}, {"smiles": "O=C1CN=C(c2ccc(Br)cc2)c2cc(Br)ccc2N1", "values": [{"measurement": "logP", "setting": "[8]", "value": 4.08}]}, {"smiles": "CCOC(=O)C=C1NC(=O)C(N2CCCCC2)S1", "note": "(stereo in doubt)", "values": [{"measurement": "logD", "setting": "[5]; pH 5.9", "value": 2.3}]}, {"smiles": "O=C1CN=C(c2cccc(Cl)c2)c2ccc(Br)cc2N1", "values": [{"measurement": "logP", "setting": "[8]", "value": 3.63}]}, {"smiles": "O=C(Oc1ccc(F)cc1)C1OC(O)C(O)C(O)C1O", "note": "(configuration not stated)", "values": [{"measurement": "logP", "setting": "[6]", "value": -0.42}]}, {"smiles": "NC(=O)CCN1CCc2cccc(Cl)c2CC1", "values": [{"measurement": "logP", "value": 1.64}]}, {"smiles": "c1nnn(C23CC4CC(CC(C4)C2)C3)n1", "values": [{"measurement": "logP", "setting": "[11]", "value": 2.95}]}, {"smiles": "Clc1cccc(-c2cccc(Cl)c2Cl)c1", "values": [{"measurement": "logP", "setting": "[12]", "value": 5.57}]}, {"smiles": "CC1(C)OC2C(CO)OC(n3ccc(=O)n(Cc4ccccc4)c3=O)C2O1", "note": "(configuration not stated)", "values": [{"measurement": "logP", "setting": "[3]", "value": 1.82}]}, {"smiles": "CCOC(=O)/C=C1\\SC(N(CC)CC)C(=O)N1C", "note": "(configuration not stated)", "values": [{"measurement": "logD", "setting": "[5]; pH 7.4", "value": 2.2}]}, {"smiles": "CCOC(=O)CN(C(=O)CCl)c1ccccc1OC", "values": [{"measurement": "logP", "setting": "[9]", "value": 1.78}]}, {"smiles": "O=C(OCc1ccccc1)OC1C(CO)OC(n2ccc(=O)[nH]c2=O)C1OC(=O)OCc1ccccc1", "note": "(configuration not stated)", "values": [{"measurement": "logP", "setting": "[3]", "value": 2.96}]}, {"smiles": "Clc1ccc(-c2c(Cl)ccc(Cl)c2Cl)c(Cl)c1", "values": [{"measurement": "logP", "setting": "[12]", "value": 6.31}]}, {"smiles": "CCCCCCCC(=O)OC[C@H]1O[C@@H](n2ccc(N)nc2=O)[C@@H](O)[C@@H]1O", "values": [{"measurement": "logD", "setting": "[4]", "value": 1.6}]}, {"smiles": "c1ccc2nn(C34CC5CC(CC(C5)C3)C4)cc2c1", "values": [{"measurement": "logP", "setting": "[11]", "value": 3.68}]}, {"smiles": "O=C(Oc1ccc(Cl)cc1)C1OC(O)C(O)C(O)C1O", "note": "(configuration not stated)", "values": [{"measurement": "logP", "setting": "[6]", "value": 0.45}]}, {"smiles": "Cc1nc(N2CCOCC2)c(C#N)cc1-c1ccccc1", "values": [{"measurement": "logP", "setting": "[10]", "value": 3.65}]}, {"smiles": "Nc1ccn(C2OC(COC(=O)C3CCCCC3)C(O)C2O)c(=O)n1", "note": "(configuration not stated)", "values": [{"measurement": "logD", "setting": "[4]", "value": 0.8}]}, {"smiles": "CCN(CCOC(C)=O)c1ccccc1", "values": [{"measurement": "logP", "setting": "[1]", "value": 2.04}]}, {"smiles": "Clc1ccccc1-c1cccc(Cl)c1Cl", "values": [{"measurement": "logP", "setting": "[12]", "value": 5.31}]}, {"smiles": "CCCN1CCn2c(nc3ccccc3c2=O)C1C", "note": "(configuration not stated)", "values": [{"measurement": "logP", "setting": "[7]", "value": 1.07}]}, {"smiles": "CC(=O)Oc1cccc2ccccc12", "values": [{"measurement": "logP", "setting": "[1]", "value": 2.78}]}, {"smiles": "C=CCN1CCc2cccc(Cl)c2CC1", "values": [{"measurement": "logP", "value": 3.3}]}, {"smiles": "OC[C@H]1O[C@@H](Oc2cc(O[C@@H]3O[C@H](CO)[C@@H](O)[C@H](O)[C@H]3O)c(I)c(O[C@@H]3O[C@H](CO)[C@@H](O)[C@H](O)[C@H]3O)c2I)[C@H](O)[C@@H](O)[C@@H]1O", "values": [{"measurement": "logP", "setting": "[13]", "value": -2.22}]}, {"smiles": "COc1ccc(-c2cc(C#N)c(Cl)nc2C)cc1", "values": [{"measurement": "logP", "setting": "[10]", "value": 3.38}]}, {"smiles": "CCOC(=O)CN(C(=O)CCl)c1ccccc1CC", "values": [{"measurement": "logP", "setting": "[9]", "value": 2.57}]}, {"smiles": "CC(=O)N(CCCl)c1ccc(CC(=O)O)cc1", "values": [{"measurement": "logP", "setting": "[1]", "value": 1.2}]}, {"smiles": "Fc1ccc(C2(Cn3cncn3)CC2)cc1", "values": [{"measurement": "logP", "setting": "[2]", "value": 1.54}]}, {"smiles": "CC1c2nc3ccccc3c(=O)n2C(C)CN1C", "note": "(configuration not stated)", "values": [{"measurement": "logP", "setting": "[7]", "value": 0.44}]}, {"smiles": "Clc1cccc(-c2ccccc2Cl)c1", "values": [{"measurement": "logP", "setting": "[12]", "value": 5.02}]}, {"smiles": "COc1ccc(-c2cc(C#N)c(N3CCOCC3)nc2C)cc1", "values": [{"measurement": "logP", "setting": "[10]", "value": 4.4}]}, {"smiles": "CCCC(Cn1cncn1)c1ccc(F)cc1", "note": "(configuration not stated)", "values": [{"measurement": "logP", "setting": "[2]", "value": 2.01}]}, {"smiles": "CCN1CC(C)n2c(nc3ccccc3c2=O)C1C", "note": "(configuration not stated)", "values": [{"measurement": "logP", "setting": "[7]", "value": 1.58}]}]}
